According to publication PMC2776038 (Molecular cell, 2009):

Test system: XPD (Rad3) helicase
Assay: single-molecule TIRF, Cy3 quenching by FeS cluster
Assay type: biochemical, Ferroplasma acidarmanus
Conditions: 3'-Cy3 ssDNA, 600 pM XPD, no RPA; 50 mM Tris-HCl pH 7.5, 3 mM MgCl2, 25 °C

For Nc1ncnc2c1ncn2[C@@H]1O[C@H](COP(=O)(O)OP(=O)(O)OP(=O)(O)O)[C@@H](O)[C@H]1O [ATP], the Km was 2.8 ± 1 µM.
